Reference: patent publication US20220281819A1, “THERAPEUTIC COMPOUNDS AND METHODS OF USE” (priority 2020, published 2022)
pIC50: −log10 of the molar value. Like-named read-outs stand apart in the source and are kept apart here.

Columns and labels:
Format in all cases: binding
TEAD1 = TEAD1 (Homo sapiens, UniProt P28347); assay: Lipid HTRF (TR-FRET lipid pocket probe competition), 30 min pre-incubation, TEAD1
Experimental: (§1) His-tagged TEAD proteins are pre-incubated with TEAD project compounds for 30 minutes at room temperature. Biotinylated lipid pocket probes are then added to the TEAD/Compound mixture and incubated for 60 minutes at room temperature. The lipid pocket probe competes with the test compound for the TEAD lipid pocket until equilibrium is reached. After 60 minutes, Europium labelled anti-His (Perkin Elmer #AD0110) and XL665 labelled streptavidin (CIS Bio 610SAXAC) are added to the TEAD/test compound/lipid pocket mixture and incubated for 30 minutes. […] If a TEAD lipid pocket binder such as binds and displaces the lipid pocket probe, the disruption of the TEAD:probe interaction results in a decrease in TR-FRET signal. The potency of compounds as TEAD lipid pocket binders is determined by IC50 value generated using a non-linear 4 parameter curve fit.

TEAD2 = TEAD2 (Homo sapiens, UniProt Q15562); assay: Lipid HTRF (TR-FRET lipid pocket probe competition), 30 min pre-incubation, TEAD2
TEAD2, sequence (Q15562 whole entry, species assumed): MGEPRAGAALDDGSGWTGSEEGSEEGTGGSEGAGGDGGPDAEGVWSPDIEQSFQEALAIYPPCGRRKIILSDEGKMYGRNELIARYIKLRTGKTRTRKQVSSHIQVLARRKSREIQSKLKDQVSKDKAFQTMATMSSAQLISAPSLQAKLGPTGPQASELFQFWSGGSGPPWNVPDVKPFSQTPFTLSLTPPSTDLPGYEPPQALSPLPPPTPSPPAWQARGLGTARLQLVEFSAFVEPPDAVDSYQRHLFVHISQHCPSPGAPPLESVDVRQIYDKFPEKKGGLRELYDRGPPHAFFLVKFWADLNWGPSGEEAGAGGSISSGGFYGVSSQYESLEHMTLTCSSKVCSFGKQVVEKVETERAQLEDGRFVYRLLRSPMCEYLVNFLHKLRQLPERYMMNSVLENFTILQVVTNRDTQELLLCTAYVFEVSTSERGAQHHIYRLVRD
Experimental: as §1

TEAD3 = TEAD3 (Homo sapiens, UniProt Q99594); assay: Lipid HTRF (TR-FRET lipid pocket probe competition), 30 min pre-incubation, TEAD3
TEAD3, sequence (Q99594 whole entry, species assumed): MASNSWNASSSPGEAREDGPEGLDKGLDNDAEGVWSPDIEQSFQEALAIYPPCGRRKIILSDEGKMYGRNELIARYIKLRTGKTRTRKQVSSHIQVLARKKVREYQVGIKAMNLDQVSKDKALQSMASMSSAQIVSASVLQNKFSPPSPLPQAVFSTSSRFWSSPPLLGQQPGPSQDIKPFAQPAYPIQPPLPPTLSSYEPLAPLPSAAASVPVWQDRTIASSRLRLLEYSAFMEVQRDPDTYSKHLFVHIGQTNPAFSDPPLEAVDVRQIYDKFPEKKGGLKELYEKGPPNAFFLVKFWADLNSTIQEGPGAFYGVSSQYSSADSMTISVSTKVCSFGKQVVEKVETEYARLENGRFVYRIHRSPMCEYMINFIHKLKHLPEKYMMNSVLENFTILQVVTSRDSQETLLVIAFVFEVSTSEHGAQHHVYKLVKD
Experimental: as §1

TEAD4 = TEAD4 (Homo sapiens, UniProt Q15561); assay: Lipid HTRF (TR-FRET lipid pocket probe competition), 30 min pre-incubation, TEAD4
TEAD4, sequence (Q15561 whole entry, species assumed): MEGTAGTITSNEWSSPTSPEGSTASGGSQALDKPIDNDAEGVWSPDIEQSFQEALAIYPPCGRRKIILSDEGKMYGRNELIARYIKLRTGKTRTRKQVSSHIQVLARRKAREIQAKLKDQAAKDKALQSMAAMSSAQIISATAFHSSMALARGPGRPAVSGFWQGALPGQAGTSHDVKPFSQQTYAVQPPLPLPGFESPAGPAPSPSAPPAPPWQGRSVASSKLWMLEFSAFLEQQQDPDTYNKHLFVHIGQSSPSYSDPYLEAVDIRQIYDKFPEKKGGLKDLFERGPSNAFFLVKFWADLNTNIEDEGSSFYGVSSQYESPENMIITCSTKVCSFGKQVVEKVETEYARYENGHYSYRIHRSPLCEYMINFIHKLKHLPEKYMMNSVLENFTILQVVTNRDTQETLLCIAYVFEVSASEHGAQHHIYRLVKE
Experimental: as §1

[1] = His-tagged TEAD1, 30 minutes pre-incubation with compound at room temperature, read-out: Lipid HTRF TEAD1 IC50
[2] = His-tagged TEAD2, 30 minutes pre-incubation with compound at room temperature, read-out: Lipid HTRF TEAD2 IC50
[3] = His-tagged TEAD3, 30 minutes pre-incubation with compound at room temperature, read-out: Lipid HTRF TEAD3 IC50
[4] = His-tagged TEAD4, 30 minutes pre-incubation with compound at room temperature, read-out: Lipid HTRF TEAD4 IC50
[5] = Lipid HTRF TEAD1 IC50, His-tagged TEAD1, 30 minutes pre-incubation with compound at room temperature
[6] = Lipid HTRF TEAD2 IC50, His-tagged TEAD2, 30 minutes pre-incubation with compound at room temperature
[7] = Lipid HTRF TEAD3 IC50, His-tagged TEAD3, 30 minutes pre-incubation with compound at room temperature
[8] = Lipid HTRF TEAD4 IC50, His-tagged TEAD4, 30 minutes pre-incubation with compound at room temperature

TEAD1, sequence (P28347 whole entry, species assumed): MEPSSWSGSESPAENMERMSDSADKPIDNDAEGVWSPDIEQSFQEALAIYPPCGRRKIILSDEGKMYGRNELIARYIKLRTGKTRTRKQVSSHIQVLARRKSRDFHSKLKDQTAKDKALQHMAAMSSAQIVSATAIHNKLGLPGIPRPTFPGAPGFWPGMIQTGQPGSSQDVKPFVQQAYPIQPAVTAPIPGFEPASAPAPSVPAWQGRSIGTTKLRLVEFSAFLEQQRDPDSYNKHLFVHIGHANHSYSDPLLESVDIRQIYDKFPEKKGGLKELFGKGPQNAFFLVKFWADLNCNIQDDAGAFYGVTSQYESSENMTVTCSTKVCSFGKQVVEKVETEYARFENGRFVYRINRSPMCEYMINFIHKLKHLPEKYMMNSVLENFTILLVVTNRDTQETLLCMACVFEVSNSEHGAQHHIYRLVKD

| pIC50 (TEAD1; [1]) | pIC50 (TEAD2; [2]) | pIC50 (TEAD3; [3]) | pIC50 (TEAD4; [4]) | SMILES | pIC50 (TEAD1; [5]) | pIC50 (TEAD2; [6]) | pIC50 (TEAD3; [7]) | pIC50 (TEAD4; [8]) |
| --- | --- | --- | --- | --- | --- | --- | --- | --- |
| 6.23 | 5.98 | 5.61 | 6.40 | C=CC(=O)Nc1cc(/C=C/[C@H]2CC[C@H](C(F)(F)F)CC2)c(OC)c(C2CC2)n1 [Final product from Example 12, N-(6-Cyclopropyl-5-methoxy-4-((E)-2-(trans-4-(trifluoromethyl)cyclohexyl)vinyl)pyridin-2-yl)acrylamide] |  |  |  |  |
| 6.92 | 6.77 | 6.48 | 7.52 | C=CC(=O)Nc1cc(/C=C/[C@H]2CC[C@H](C(F)(F)F)CC2)c(OC)nc1C#N [Final product from Example 13, N-(2-Cyano-6-methoxy-5-((E)-2-(trans-4-(trifluoromethyl)cyclohexyl)vinyl)pyridin-3-yl)acrylamide] |  |  |  |  |
| 7.40 | 7.52 | 7.22 | 7.15 | C=CC(=O)Nc1ccc(OC)c(/C=C/CC2CCCC2)c1 [Final product from Example 14, (E)-N-(3-(3-cyclopentylprop-1-en-1-yl)-4-methoxyphenyl)acrylamide] |  |  |  |  |
| 5.66 | 6.14 | 5.39 | 6.47 | C=CC(=O)N(CCO)c1cc(/C=C/[C@H]2CC[C@H](C(F)(F)F)CC2)c(OC)cn1 [Final product from Example 15, N-(2-Hydroxyethyl)-N-(5-methoxy-4-((E)-2-(trans-4-(trifluoromethyl)cyclohexyl)vinyl)pyridin-2-yl)acrylamide] |  |  |  |  |
| 6.85 | 6.27 | 7.05 | 6.55 | C=CC(=O)Nc1cc(-c2ccc(C(C)C)cc2)c(OC)cc1F [Final product from Example 16, N-(4-fluoro-4′-isopropyl-6-methoxy-[1,1′-biphenyl]-3-yl)acrylamide] |  |  |  |  |
| 6.15 | 5.89 | 5.28 | 6.33 | C=CC(=O)Nc1cc(/C=C/c2ccc(Cl)cc2)c2c(c1)CCO2 [Final product from Example 17, (E)-N-(7-(4-chlorostyryl)-2,3-dihydrobenzofuran-5-yl)acrylamide] |  |  |  |  |
| 6.66 | 6.68 | 6.37 | 6.12 | C=CC(=O)Nc1cnc(OC)c(/C=C/CC(C)C)c1 [Final product from Example 18, (E)-N-(6-methoxy-5-(4-methylpent-1-en-1-yl)pyridin-3-yl)acrylamide] |  |  |  |  |
| 5.87 | 5.59 | 5.50 | 5.24 | C=CC(=O)Nc1cnc(OC)c(/C=C/C2CC(F)(F)C2)c1 [Final product from Example 19, (E)-N-(5-(2-(3,3-difluorocyclobutyl)vinyl)-6-methoxypyridin-3-yl)acrylamide] |  |  |  |  |
| 6.92 | 6.27 | 6.39 | 7.40 | C=C(C(=O)Nc1cnc(OC)c(/C=C/C2CCC(F)(F)CC2)c1)c1ccccc1 [Final product from Example 20, (E)-N-(5-(2-(4,4-Difluorocyclohexyl)vinyl)-6-methoxypyridin-3-yl)-2-phenylacrylamide] |  |  |  |  |
| 7.10 | 6.44 | 6.80 | 7.22 | COc1ncc(NC(=O)/C=C/C#N)cc1/C=C/C1CCC(F)(F)CC1 [Final product from Example 21, (E)-3-cyano-N-(5-((E)-2-(4,4-difluorocyclohexyl)vinyl)-6-methoxypyridin-3-yl)acrylamide] |  |  |  |  |
| 6.72 | 6.60 | 6.35 | 6.92 | C=CC(=O)Nc1ccc(OC)c(/C=C/[C@H]2CC[C@H](C(F)(F)F)CC2)c1 [Final product from Example 22, N-(4-Methoxy-3-((E)-2-(trans-4-(trifluoromethyl)cyclohexyl)vinyl)phenyl)acrylamide] |  |  |  |  |
| 7.30 | 6.39 | 7.10 | 6.77 | C=CC(=O)Nc1ccc(OC)c(/C=C/C2CCC(F)(F)CC2)c1 [Final product from Example 23, (E)-N-(3-(2-(4,4-Difluorocyclohexyl)vinyl)-4-methoxyphenyl)acrylamide] |  |  |  |  |
| 5.80 | 6.68 | < 4.30 | 6.25 | C=CC(=O)Nc1cc(/C=C/[C@H]2CC[C@H](C(F)(F)F)CC2)c(OC)nc1-c1ccccc1 [Final product from Example 24, N-(6-Methoxy-2-phenyl-5-((E)-2-(trans-4-(trifluoromethyl)cyclohexyl)vinyl)pyridin-3-yl)acrylamide] |  |  |  |  |
| 7.40 | 8.00 | 6.44 | 7.40 | C=CC(=O)Nc1cc(/C=C/[C@H]2CC[C@H](C(F)(F)F)CC2)c(OC)nc1CO [Final product from Example 25, N-(2-(Hydroxymethyl)-6-methoxy-5-((E)-2-(trans-4-(trifluoromethyl)cyclohexyl)vinyl)pyridin-3-yl)acrylamide] |  |  |  |  |
| 6.62 | 6.82 | 6.00 | 7.10 | C=CC(=O)Nc1cc(/C=C/[C@H]2CC[C@H](C(F)(F)F)CC2)c(OC)nc1OC [Final product from Example 26, N-(2,6-Dimethoxy-5-((E)-2-(trans-4-(trifluoromethyl)cyclohexyl)vinyl)pyridin-3-yl)acrylamide] |  |  |  |  |
| 6.70 | 6.28 | 6.80 | 7.15 | C=CC(=O)Nc1ncc(OC)c(/C=C/C2CCC(F)(F)CC2)n1 [Final product from Example 27, (E)-N-(4-(2-(4,4-Difluorocyclohexyl)vinyl)-5-methoxypyrimidin-2-yl)acrylamide] |  |  |  |  |
| 6.64 | 5.85 | 6.25 | 7.00 | C=CC(=O)Nc1cc(/C=C/[C@H]2CC[C@H](C(F)(F)F)CC2)c(OC)nc1C(N)=O [Final product from Example 28, 3-Acrylamido-6-methoxy-5-((E)-2-(trans-4-(trifluoromethyl)cyclohexyl)vinyl) picolinamide] |  |  |  |  |
| 7.30 | 7.40 | 7.40 | 7.70 | C=CC(=O)Nc1cc(/C=C/C2CCC(F)(F)CC2)c(C#N)cn1 [Final product from Example 29, (E)-N-(5-Cyano-4-(2-(4,4-difluorocyclohexyl)vinyl)pyridin-2-yl)acrylamide] |  |  |  |  |
|  |  |  |  | C=C(CNc1cnc(OC)c(/C=C/[C@H]2CC[C@H](C(F)(F)F)CC2)c1)C(=O)O [Final product from Example 30, 2-(((6-methoxy-5-((E)-2-(trans-4-(trifluoromethyl)cyclohexyl)vinyl)pyridin-3-yl)amino)methyl)acrylic acid] | 6.24 | 6.57 | 5.90 | 6.85 |
|  |  |  |  | C=C(CNc1cnc(C#N)c(/C=C/[C@H]2CC[C@H](C(F)(F)F)CC2)c1)C(=O)O [Final product from Example 31, 2-(((6-Cyano-5-((E)-2-(trans-4-(trifluoromethyl)cyclohexyl)vinyl)pyridin-3-yl)amino)methyl)acrylic acid] | 5.32 | 5.77 | 6.01 | 5.82 |
| 7.10 | 6.70 | 6.11 | 7.10 | C=CC(=O)Nc1cc(/C=C/C2CCC(F)(F)CC2)c2c(c1)CCO2 [Final product from Example 32, (E)-N-(7-(2-(4,4-Difluorocyclohexyl)vinyl)-2,3-dihydrobenzofuran-5-yl)acrylamide] |  |  |  |  |
